From patent US20240182513A1, “SEPARATION OF METAL IONS FROM A SAMPLE USING GLYCOLIPIDS” (ARIZONA BOARD OF REGENTS ON BEHALF OF THE UNIVERSITY OF …, priority 2021, published 2024)

Experiments:
[1] = Example 2.1 rhamnolipid precipitation, filtration, centrifugation: lead; details: for Treatment 2: Rhamnolipid and Filtration Cf / Treatment 3: Rhamnolipid and Centrifugation Cc / Treatment 1: Rhamnolipid Only Cr: lead concentration after treatment; for Treatment 1: Rhamnolipid Only (Rr) efficiency of removal / Treatment 2: Rhamnolipid and Filtration (Rf) efficiency of removal / Treatment 3: Rhamnolipid and Centrifugation (Rc) efficiency of removal: lead
Method: (§1) Structural variants of synthetic glycolipids were used to show the effect of the number and length of the hydrophobic tail(s) on rhamnolipid as a chemical precipitant. […] Solutions (10 mM) were made using nanopure water (≥18 MΩ-cm) then adjusted to a pH of 6.9±0.05 with HNO3 and NaOH. These solutions were made in advance and stored in the cold room for up to one month. They were brought to room temperature before each experiment.
(§2) Three metals were tested for binding with rhamnolipid. Lead as […] (Fisher Scientific, Waltham, MA, 99% purity), was chosen to represent a metal with high rhamnolipid-metal conditional stability constant; lanthanum as La(NO3)3 6(H2O) (Sigma-Aldrich, St. Louis, MO, 99.99% purity) was chosen as a representative REE; and magnesium as Mg(NO3)2 6(H2O) (Sigma-Aldrich, St. Louis, MO, 99% purity) was chosen to represent a metal with a low rhamnolipid-metal conditional stability constant (Hogan et al., 2017). Metal solutions (5 mM) were made using nanopure water (≥18 MΩ-cm) in 20 ml glass scintillation vials. All solutions were used within 15 min to ensure minimal adsorption to the glass vial.
(§3) Three glycolipid-based treatments were evaluated to remove metal from solution: (1) the addition of glycolipid with no further treatment (gravitational precipitation), (2) the addition of a glycolipid followed by filtration or (3) the addition of a glycolipid followed by centrifugation. Each metal (Pb, La, and Mg) was evaluated separately with each of the glycolipid structures. For each experiment, a metal solution was mixed with a glycolipid solution in a 1.7 ml reaction tube at varying molar ratios of glycolipid to metal: 0:1 (glycolipid-free control), 2:1, 5:1, and 10:1. The reactions were mixed in the order of nanopure water (≥18 MΩ-cm), glycolipid solution (10 mM), then metal solution (5 mM). The metal and glycolipid solutions were continuously stirred as they were aliquoted into the reaction tubes. The experiment was performed in triplicate.
(§4) The reaction tubes were mixed overnight (16 to 24 h) and then three samples were collected from each tube to measure the effect of each of the three treatments: a glycolipid only treatment sample, a filtration treatment sample, and a centrifugation treatment sample. Briefly, for the glycolipid only treatment samples all tubes were vortexed for approximately 5 sec immediately before removing 0.1 ml into a dilution tube of 2% trace metal grade nitric acid (12 to 14 ml) to minimize the settling of particles. For the filtration samples each reaction tube was vortexed for 5 sec and then a 0.6 ml aliquot was collected with a 1 ml syringe. A GHP acrodisc disk filter (hydrophilic polypropylene membrane, 0.45 μm pore size, 25 mm disc diameter) from Pall Life Sciences (Port Washington, New York) was then placed onto the end of the syringe and the solution was pushed through the filter. The void space in the disk filter holds approximately 0.5 ml, therefore around 0.1 ml of filtrate was collected into a dilution tube. For the centrifugation sample, the remaining solution was centrifuged at 10,000 RCF for 15 min. Approximately 0.1 ml of the supernatant was aliquoted into a dilution tube. Following collection, all samples were taken for metal analysis using ICP-MS.

[2] = Example 2.1 rhamnolipid precipitation, filtration, centrifugation: magnesium; details: for Treatment 2: Rhamnolipid and Filtration Cf / Treatment 3: Rhamnolipid and Centrifugation Cc / Treatment 1: Rhamnolipid Only Cr: magnesium concentration after treatment; for Treatment 2: Rhamnolipid and Filtration (Rf) efficiency of removal: magnesium
Method: as §1, §2, §3, §4

[3] = Example 2.1 rhamnolipid precipitation, filtration, centrifugation: lanthanum; details: for Treatment 2: Rhamnolipid and Filtration Cf / Treatment 3: Rhamnolipid and Centrifugation Cc / Treatment 1: Rhamnolipid Only Cr: lanthanum concentration after treatment; for Treatment 1: Rhamnolipid Only (Rr) efficiency of removal / Treatment 2: Rhamnolipid and Filtration (Rf) efficiency of removal / Treatment 3: Rhamnolipid and Centrifugation (Rc) efficiency of removal: lanthanum
Method: as §1, §2, §3, §4

**Q.** For CCCCCCCCCCCC(CC(=O)O)OC1O[C@@H](C)[C@H](O)[C@@H](O)[C@H]1O (stereo partly shown) [Rha C14], which “Treatment 2: Rhamnolipid and Filtration Cf” value ([1]; molar ratio 2 to 1) is on record?
**A.** 0.031 ± 0.030 mmol/L

**Q.** What about the “Treatment 3: Rhamnolipid and Centrifugation Cc” value ([1]; molar ratio 2 to 1) of the same molecule?
**A.** 0.194 ± 0.006 mmol/L

**Q.** What about the “Treatment 1: Rhamnolipid Only Cr” value ([1]; molar ratio 5 to 1) of the same molecule?
**A.** 0.315 ± 0.004 mmol/L

**Q.** And the “Treatment 2: Rhamnolipid and Filtration Cf” value ([1]; molar ratio 5 to 1)?
**A.** 0.000 ± 0.000 mmol/L

**Q.** And the “Treatment 3: Rhamnolipid and Centrifugation Cc” value ([1]; molar ratio 5 to 1)?
**A.** 0.315 ± 0.006 mmol/L

**Q.** What about the “Treatment 1: Rhamnolipid Only Cr” value ([1]; molar ratio 10 to 1) of the same molecule?
**A.** 0.311 ± 0.008 mmol/L

**Q.** What about the “Treatment 2: Rhamnolipid and Filtration Cf” value ([1]; molar ratio 10 to 1) of the same molecule?
**A.** 0.001 ± 0.001 mmol/L

**Q.** And the “Treatment 3: Rhamnolipid and Centrifugation Cc” value ([1]; molar ratio 10 to 1)?
**A.** 0.327 ± 0.001 mmol/L

**Q.** What about the “Treatment 1: Rhamnolipid Only Cr” value ([1]; molar ratio rhamnolipid:lead 2 to 1) of the same molecule?
**A.** 0.278 ± 0.011 mmol/L

**Q.** And the “Treatment 1: Rhamnolipid Only (Rr) efficiency of removal” value ([1]; molar ratio 2 to 1)?
**A.** (13.3%)

**Q.** What about the “Treatment 2: Rhamnolipid and Filtration (Rf) efficiency of removal” value ([1]; molar ratio 2 to 1) of the same molecule?
**A.** (90.2%)

**Q.** And the “Treatment 3: Rhamnolipid and Centrifugation (Rc) efficiency of removal” value ([1]; molar ratio 2 to 1)?
**A.** (39.4%)

**Q.** And the “Treatment 1: Rhamnolipid Only (Rr) efficiency of removal” value ([1]; molar ratio 5 to 1)?
**A.** (1.6%)

**Q.** What about the “Treatment 2: Rhamnolipid and Filtration (Rf) efficiency of removal” value ([1]; molar ratio 5 to 1) of the same molecule?
**A.** (100.0%)

**Q.** And the “Treatment 3: Rhamnolipid and Centrifugation (Rc) efficiency of removal” value ([1]; molar ratio 5 to 1)?
**A.** (1.8%)

**Q.** And the “Treatment 1: Rhamnolipid Only (Rr) efficiency of removal” value ([1]; molar ratio 10 to 1)?
**A.** (3.0%)

**Q.** What about the “Treatment 2: Rhamnolipid and Filtration (Rf) efficiency of removal” value ([1]; molar ratio 10 to 1) of the same molecule?
**A.** (99.7%)

**Q.** And the “Treatment 2: Rhamnolipid and Filtration Cf” value ([2]; molar ratio 2 to 1)?
**A.** 0.147 ± 0.045 mmol/L

**Q.** And the “Treatment 3: Rhamnolipid and Centrifugation Cc” value ([2]; molar ratio 2 to 1)?
**A.** 0.292 ± 0.008 mmol/L

**Q.** And the “Treatment 1: Rhamnolipid Only Cr” value ([2]; molar ratio 5 to 1)?
**A.** 0.300 ± 0.018 mmol/L

**Q.** And the “Treatment 2: Rhamnolipid and Filtration Cf” value ([2]; molar ratio 5 to 1)?
**A.** 0.088 ± 0.042 mmol/L

**Q.** And the “Treatment 3: Rhamnolipid and Centrifugation Cc” value ([2]; molar ratio 5 to 1)?
**A.** 0.279 ± 0.016 mmol/L

**Q.** What about the “Treatment 1: Rhamnolipid Only Cr” value ([2]; molar ratio 10 to 1) of the same molecule?
**A.** 0.302 ± 0.017 mmol/L

**Q.** What about the “Treatment 2: Rhamnolipid and Filtration Cf” value ([2]; molar ratio 10 to 1) of the same molecule?
**A.** 0.009 ± 0.004 mmol/L

**Q.** And the “Treatment 3: Rhamnolipid and Centrifugation Cc” value ([2]; molar ratio 10 to 1)?
**A.** 0.219 ± 0.021 mmol/L

**Q.** And the “Treatment 1: Rhamnolipid Only Cr” value ([2]; molar ratio rhamnolipid:magnesium 2 to 1)?
**A.** 0.291 ± 0.005 mmol/L

**Q.** What about the “Treatment 2: Rhamnolipid and Filtration (Rf) efficiency of removal” value ([2]; molar ratio 2 to 1) of the same molecule?
**A.** (45.0%)

**Q.** What about the “Treatment 2: Rhamnolipid and Filtration (Rf) efficiency of removal” value ([2]; molar ratio 5 to 1) of the same molecule?
**A.** (66.9%)

**Q.** And the “Treatment 2: Rhamnolipid and Filtration (Rf) efficiency of removal” value ([2]; molar ratio 10 to 1)?
**A.** (96.6%)

**Q.** What about the “Treatment 2: Rhamnolipid and Filtration Cf” value ([3]; molar ratio 2 to 1) of the same molecule?
**A.** 0.164 ± 0.058 mmol/L

**Q.** And the “Treatment 3: Rhamnolipid and Centrifugation Cc” value ([3]; molar ratio 2 to 1)?
**A.** 0.221 ± 0.014 mmol/L

**Q.** What about the “Treatment 1: Rhamnolipid Only Cr” value ([3]; molar ratio 5 to 1) of the same molecule?
**A.** 0.215 ± 0.024 mmol/L

**Q.** What about the “Treatment 2: Rhamnolipid and Filtration Cf” value ([3]; molar ratio 5 to 1) of the same molecule?
**A.** 0.044 ± 0.007 mmol/L

**Q.** And the “Treatment 3: Rhamnolipid and Centrifugation Cc” value ([3]; molar ratio 5 to 1)?
**A.** 0.094 ± 0.002 mmol/L

**Q.** What about the “Treatment 1: Rhamnolipid Only Cr” value ([3]; molar ratio 10 to 1) of the same molecule?
**A.** 0.314 ± 0.016 mmol/L

**Q.** What about the “Treatment 2: Rhamnolipid and Filtration Cf” value ([3]; molar ratio 10 to 1) of the same molecule?
**A.** 0.0 ± 0.000 mmol/L

**Q.** What about the “Treatment 3: Rhamnolipid and Centrifugation Cc” value ([3]; molar ratio 10 to 1) of the same molecule?
**A.** 0.006 ± 0.001 mmol/L

**Q.** What about the “Treatment 1: Rhamnolipid Only Cr” value ([3]; molar ratio rhamnolipid:lanthanum 2 to 1) of the same molecule?
**A.** 0.247 ± 0.034 mmol/L

**Q.** And the “Treatment 1: Rhamnolipid Only (Rr) efficiency of removal” value ([3]; molar ratio 2 to 1)?
**A.** (16.9%)

**Q.** What about the “Treatment 2: Rhamnolipid and Filtration (Rf) efficiency of removal” value ([3]; molar ratio 2 to 1) of the same molecule?
**A.** (44.9%)

**Q.** And the “Treatment 3: Rhamnolipid and Centrifugation (Rc) efficiency of removal” value ([3]; molar ratio 2 to 1)?
**A.** (25.8%)

**Q.** What about the “Treatment 1: Rhamnolipid Only (Rr) efficiency of removal” value ([3]; molar ratio 5 to 1) of the same molecule?
**A.** (27.7%)

**Q.** And the “Treatment 2: Rhamnolipid and Filtration (Rf) efficiency of removal” value ([3]; molar ratio 5 to 1)?
**A.** (85.3%)

**Q.** What about the “Treatment 3: Rhamnolipid and Centrifugation (Rc) efficiency of removal” value ([3]; molar ratio 5 to 1) of the same molecule?
**A.** (68.5%)

**Q.** What about the “Treatment 2: Rhamnolipid and Filtration (Rf) efficiency of removal” value ([3]; molar ratio 10 to 1) of the same molecule?
**A.** 1.0 (99.9%)

**Q.** And the “Treatment 3: Rhamnolipid and Centrifugation (Rc) efficiency of removal” value ([3]; molar ratio 10 to 1)?
**A.** (98.0%)
